From patent US7462600B2, “Macrolides” (Pfizer Inc, priority 2004, dated 2008)
Converted amounts (≈) assume the structure as drawn. Where two headings read alike, the source gives them in different places.

Tests used:
Format in all cases: cell-based
[1] = system: Streptococcus pneumoniae 1016; experiment: MIC, microtiter broth dilution (NCCLS M100-S14), S. pneumoniae 1016 (susceptible)
Procedure, shortened: (§1)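 NCCLS M100-S14 rules govern how the microdilution MICs are interpreted. Each compound starts as a 40 mg/ml solution in DMSO before dilution.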

[2] = system: Streptococcus pneumoniae 1095; settings: microtiter broth dilution
Procedure, shortened: as §1

[3] = system: Streptococcus pneumoniae 1175; settings: microtiter broth dilution
Procedure, shortened: as §1

[4] = system: Streptococcus pyogenes 1079; experiment: MIC, microtiter broth dilution (NCCLS M100-S14), S. pyogenes 1079 (ermB)
Procedure, shortened: as §1

[5] = system: Haemophilus influenzae 1218; experiment: MIC, microtiter broth dilution (NCCLS M100-S14), H. influenzae 1218 (susceptible)
Procedure, shortened: as §1

[6] = S. pneumoniae 1016 (susceptible)
[7] = H. influenzae 1218 (susceptible)

Row | SMILES | MIC S. pneumo. 1016 ([1]; Streptococcus pneumoniae 1016) [µg/mL] | MIC S. pneumo. 1095 ([2]; Streptococcus pneumoniae 1095) [µg/mL] | MIC S. pneumo. 1175 ([3]; Streptococcus pneumoniae 1175) [µg/mL] | MIC S. pyogenes 1079 ([4]; Streptococcus pyogenes 1079) [µg/mL] | MIC H. influenzae 1218 ([5]; Haemophilus influenzae 1218) [µg/mL] | MIC S. pneumo. 1016 [1, 6] [µg/mL] | MIC S. pneumo. 1095 ([2]; S. pneumoniae 1095 (ermB)) [µg/mL] | MIC S. pneumo. 1175 ([3]; S. pneumoniae 1175 (mefA)) [µg/mL] | MIC S. pyogenes 1079 ([4]; S. pyogenes 1079 (ermB)) [µg/mL] | MIC H. influenzae 1218 [5, 7] [µg/mL]
1 | CCC1OC(=O)C(C)C(=O)C(C)C(OC2OC(C)CC(N(C)C)C2O)C(C)(OC)CC(C)C(=O)C(C)C2N(C3CN(Cc4c(Cl)cnc5ccccc45)C3)C(=O)OC12C (stereo not drawn) [Example 1.107, 3-descladinosyl-11,12-dideoxy-6-O-methyl-3-oxo-12,11-(oxycarbonyl-(1-(3-chloroquinoline-4-methyl)-azetidin-3-yl)-imino)erythromycin A] | <0.063 | <0.063 | <0.063 | 0.25 (≈ 0.296 µM) | 1 (≈ 1.19 µM) |  |  |  |  | 
2 | CC[C@H]1OC(=O)[C@H](C)C(=O)[C@H](C)[C@@H](O[C@@H]2O[C@H](C)C[C@H](N(C)C)[C@H]2O)[C@](C)(OC)C[C@@H](C)C(=O)[C@H](C)[C@H]2N(CC3(C)CN(Cc4c[nH]c5ccc(F)cc45)C3)C(=O)O[C@]12C [6.08] | <0.06 | <0.06 | 0.25 (≈ 0.297 µM) | 16 (≈ 19 µM) | 0.5 (≈ 0.593 µM) |  |  |  |  | 
3 | CCC1OC(=O)C(C)C(=O)C(C)C(OC2OC(C)CC(N(C)C)C2O)C(C)(OC)CC(C)C(=O)C(C)C2N(C3CN(S(=O)(=O)c4ccc5ncsc5c4)C3)C(=O)OC12C (stereo not drawn) [Example 3.79] | <0.06 | <0.06 | <0.06 | 1 (≈ 1.16 µM) | 0.25 (≈ 0.289 µM) |  |  |  |  | 
4 | CCC1OC(=O)C(C)C(=O)C(C)C(OC2OC(C)CC(N(C)C)C2O)C(C)(OC)CC(C)C(=O)C(C)C2N(CC3CCCN3C(=O)c3ccc4ncccc4c3)C(=O)OC12C (stereo not drawn) [10.06] |  |  |  |  |  | <0.06 | <0.06 | 0.12 (≈ 0.141 µM) | 64 (≈ 75.2 µM) | 2 (≈ 2.35 µM)
5 | CCC1OC(=O)C(C)C(=O)C(C)C(OC2OC(C)CC(N(C)C)C2O)C(C)(OC)CC(C)C(=O)C(C)C2N(CC3CCCN3C(=O)c3cccn(Cc4ccccc4)c3=O)C(=O)OC12C (stereo not drawn) [10.36] |  |  |  |  |  | <0.06 | 4 (≈ 4.41 µM) | 0.5 (≈ 0.551 µM) | >64.00 | 16 (≈ 17.6 µM)
6 | CCC1OC(=O)C(C)C(=O)C(C)C(OC2OC(C)CC(N(C)C)C2O)C(C)(OC)CC(C)C(=O)C(C)C2N(C3CN(S(=O)(=O)c4ccc(N5CCOCC5)c(F)c4)C3)C(=O)OC12C (stereo not drawn) [Example 3.46, 3-fluoro-4-morpholinobenzenesulfonyl] | <0.06 | 0.5 (≈ 0.549 µM) | <0.06 | 32 (≈ 35.1 µM) | 2 (≈ 2.2 µM) |  |  |  |  | 
7 | CCC1OC(=O)C(C)C(=O)C(C)C(OC2OC(C)CC(N(C)C)C2O)C(C)(OC)CC(C)C(=O)C(C)C2N(C3CN(C(=O)c4ccc(-n5ccnc5)cc4)C3)C(=O)OC12C (stereo not drawn) [Example 2.14] | <0.06 | 2 (≈ 2.39 µM) | 0.25 (≈ 0.298 µM) | >64.00 | 4 (≈ 4.77 µM) |  |  |  |  | 
8 | CCC1OC(=O)C(C)C(=O)C(C)C(OC2OC(C)CC(N(C)C)C2O)C(C)(OC)CC(C)C(=O)C(C)C2N(CC3CN(Cc4nc5ccccc5[nH]4)C3)C(=O)OC12C (stereo not drawn) [4.16] | <0.06 | 2 (≈ 2.46 µM) | 0.25 (≈ 0.308 µM) | >64.00 | 0.5 (≈ 0.616 µM) |  |  |  |  | 
9 | CCC1OC(=O)C(C)C(=O)C(C)C(OC2OC(C)CC(N(C)C)C2O)C(C)(OC)CC(C)C(=O)C(C)C2N(C3CN(S(=O)(=O)c4ccc5c(cnn5C)c4)C3)C(=O)OC12C (stereo not drawn) [Example 3.94, 3-descladinosyl-11,12-dideoxy-6-O-methyl-3-oxo-12,11-(oxycarbonyl-(1-(1-methyl-1H-indazole-5-sulfonyl)-azetidin-3-yl)-imino)erythromycin A] | <0.06 | 0.12 (≈ 0.139 µM) | <0.06 | 0.25 (≈ 0.29 µM) | 0.25 (≈ 0.29 µM) |  |  |  |  | 
